From patent publication US8877741B2, “Pyrrolidine derivatives, pharmaceutical compositions and uses thereof” (Boehringer Ingelheim International GmbH, priority 2013, dated 2014)

Each molecule was assayed against human ACC2 (Homo sapiens (Human), UniProt O00763) (assay: ACC2 assay, spectrophotometric 384 well assay (NADH-linked kinetic method)). Settings: human ACC2 construct lacking the 128 N-terminal amino acids; coupled lactate dehydrogenase/pyruvate kinase reaction, 340 nm, 25° C.
Assay type: biochemical
Experimental: Spectrophotometric 384 Well Assay
Malonyl CoA formation by acetyl CoA carboxylases is stoichometrically linked to the consumption of ATP. ACC2 activity is measured in a NADH-linked kinetic method measuring ADP generated during the ACC reaction using a coupled lactate dehydrogenase/pyruvate kinase reaction.
For biological testing, a human ACC2 construct which lacks the 128 amino acids at the N-terminus for increased solubility (nt 385-6966 in Genbank entry AJ575592) is cloned. The protein is then expressed in insect cells using a baculoviral expression system. Protein purification is performed by anion exchange.
All compounds are dissolved in dimethyl sulfoxide (DMSO) to a concentration of 10 mM.
The enzymatic reaction is then started by addition of a mixture of NADH, acetyl Coenzyme A (both 2000 μM f.c.) and ATP (500 uM f.c.). The decrease of the optical density (slope S) is then determined at 25° C. at a wavelength of 340 nm over 15 minutes in a spectrophotometric reader.
Each assay microtiter plate contains wells with vehicle instead of compound as controls for the non-inhibited enzyme (100% CTL; ‘HIGH’) and wells without acetyl-CoA as controls for non-specific NADH degradation (0% CTL; ‘LOW’).
The slope S is used for calculation of % CTL=(S(compound)−S(‘LOW’))/(S(‘HIGH’)−S(‘LOW’))*100.
For IC50 value determination, the sample slope in the presence of the test compound after subtraction of the low controls (S(compound)−S(‘LOW’)) are used.
An IC50 value is derived from the compound slopes at different dosages after subtraction of the low controls (S(compound)−S(‘LOW’)) by non-linear regression curve fitting (equation y=(A+((B−A)/(1+((C/x)^D))))).

Chain of human ACC2 (O00763 129-2458): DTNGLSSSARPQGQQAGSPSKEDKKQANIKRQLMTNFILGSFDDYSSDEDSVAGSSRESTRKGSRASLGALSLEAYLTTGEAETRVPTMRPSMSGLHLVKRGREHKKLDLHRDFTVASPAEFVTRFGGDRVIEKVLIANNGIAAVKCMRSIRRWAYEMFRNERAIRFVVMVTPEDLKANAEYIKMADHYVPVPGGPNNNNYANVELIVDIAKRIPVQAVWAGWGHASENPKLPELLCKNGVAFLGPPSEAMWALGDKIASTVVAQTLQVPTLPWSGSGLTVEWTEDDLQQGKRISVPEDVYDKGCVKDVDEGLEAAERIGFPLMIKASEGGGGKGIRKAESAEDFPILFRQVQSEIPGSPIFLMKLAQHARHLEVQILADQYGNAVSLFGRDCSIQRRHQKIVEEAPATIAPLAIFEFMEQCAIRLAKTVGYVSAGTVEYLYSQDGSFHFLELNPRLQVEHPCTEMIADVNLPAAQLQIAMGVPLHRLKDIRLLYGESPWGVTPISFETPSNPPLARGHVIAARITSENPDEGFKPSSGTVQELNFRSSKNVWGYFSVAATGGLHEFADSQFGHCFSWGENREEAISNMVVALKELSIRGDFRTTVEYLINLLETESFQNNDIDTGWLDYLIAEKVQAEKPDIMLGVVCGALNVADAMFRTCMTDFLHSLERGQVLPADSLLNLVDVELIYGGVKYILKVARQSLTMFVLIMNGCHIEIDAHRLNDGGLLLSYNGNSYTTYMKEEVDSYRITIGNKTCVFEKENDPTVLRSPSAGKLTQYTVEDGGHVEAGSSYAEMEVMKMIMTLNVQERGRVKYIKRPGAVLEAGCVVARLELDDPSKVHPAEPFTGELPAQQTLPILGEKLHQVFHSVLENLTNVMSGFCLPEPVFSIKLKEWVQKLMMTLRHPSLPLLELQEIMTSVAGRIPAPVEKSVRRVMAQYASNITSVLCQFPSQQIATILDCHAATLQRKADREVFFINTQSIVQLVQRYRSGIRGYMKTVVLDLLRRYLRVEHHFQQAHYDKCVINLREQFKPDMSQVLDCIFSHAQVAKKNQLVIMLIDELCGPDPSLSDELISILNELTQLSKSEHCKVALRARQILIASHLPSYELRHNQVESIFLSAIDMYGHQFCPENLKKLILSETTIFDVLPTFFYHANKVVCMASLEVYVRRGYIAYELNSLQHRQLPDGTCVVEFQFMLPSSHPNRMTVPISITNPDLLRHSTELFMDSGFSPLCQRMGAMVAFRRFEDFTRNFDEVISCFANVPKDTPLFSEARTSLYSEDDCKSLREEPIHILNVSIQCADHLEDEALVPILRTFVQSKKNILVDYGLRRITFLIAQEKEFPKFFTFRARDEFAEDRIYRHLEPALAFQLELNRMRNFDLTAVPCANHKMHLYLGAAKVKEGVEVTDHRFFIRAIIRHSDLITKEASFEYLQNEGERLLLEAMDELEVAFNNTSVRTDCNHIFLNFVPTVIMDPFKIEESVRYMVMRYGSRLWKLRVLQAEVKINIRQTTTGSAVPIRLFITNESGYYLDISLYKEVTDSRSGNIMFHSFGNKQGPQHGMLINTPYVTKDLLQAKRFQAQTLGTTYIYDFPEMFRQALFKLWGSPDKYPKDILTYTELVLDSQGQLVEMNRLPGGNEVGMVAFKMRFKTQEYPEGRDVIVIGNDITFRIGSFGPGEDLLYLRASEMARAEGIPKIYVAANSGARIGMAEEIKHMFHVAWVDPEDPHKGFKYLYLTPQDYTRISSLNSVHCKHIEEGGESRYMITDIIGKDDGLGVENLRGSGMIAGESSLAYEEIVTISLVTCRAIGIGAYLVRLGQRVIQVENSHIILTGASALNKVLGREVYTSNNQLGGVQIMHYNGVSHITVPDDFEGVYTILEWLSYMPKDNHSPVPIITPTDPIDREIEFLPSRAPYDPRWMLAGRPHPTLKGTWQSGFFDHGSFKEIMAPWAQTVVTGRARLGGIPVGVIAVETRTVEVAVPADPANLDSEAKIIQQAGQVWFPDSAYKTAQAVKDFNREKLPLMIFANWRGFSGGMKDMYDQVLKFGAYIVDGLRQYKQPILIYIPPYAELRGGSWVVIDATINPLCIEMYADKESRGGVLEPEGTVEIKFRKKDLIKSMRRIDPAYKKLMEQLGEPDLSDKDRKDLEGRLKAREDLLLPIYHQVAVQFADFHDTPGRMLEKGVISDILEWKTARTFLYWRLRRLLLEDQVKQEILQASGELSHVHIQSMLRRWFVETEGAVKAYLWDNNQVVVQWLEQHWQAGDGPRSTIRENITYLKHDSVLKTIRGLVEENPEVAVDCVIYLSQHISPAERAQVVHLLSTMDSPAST

SMILES | IC50 [nM]
C[C@H](NC(=O)N1CCCC1)c1ccc(OC2CCN(c3ccc(OCC4CC4(F)F)cn3)C2)cc1 (some centres unmarked) [Example 3.18] | 423
CC(=O)N[C@@H](C)c1ccc(OC2CCN(c3ccc(OC4CCC4)nc3)C2)cc1 (some centres unmarked) [Example 1.21] | 335
C[C@H](NC(=O)c1cncs1)c1ccc(OC2CCN(c3cccc(C(F)(F)F)n3)C2)cc1 (some centres unmarked) [Example 2.46] | 60
CCCNc1nccc(N2CCC(Oc3ccc([C@H](C)NC(=O)N4CCOCC4)cc3)C2)c1F (some centres unmarked) [Example 5.8] | 141
CC(C)Oc1cc(N2CCC(Oc3ccc([C@H](C)NC(=O)C(F)F)cc3)C2)ccn1 (some centres unmarked) [Example 2.19] | 250
CCCOc1cc(N2CCC(Oc3ccc([C@H](C)NC(C)=O)cc3)C2)ccn1 (some centres unmarked) [Example 1.16] | 114
CCCOc1cc(C)c(N2CCC(Oc3ccc([C@H](C)NC(C)=O)cc3)C2)cn1 (some centres unmarked) [Example 1.51] | 401
C[C@H](NC(=O)C(F)(F)F)c1ccc(OC2CCN(c3ccnc(OCC4CC4)c3)C2)cc1 (some centres unmarked) [Example 7.3] | 54
CC(=O)N[C@@H](C)c1ccc(OC2CCN(c3ncc(OCCC4CC4)cc3F)C2)cc1 (some centres unmarked) [Example 1.34] | 434
Cc1occc1C(=O)N[C@@H](C)c1ccc(OC2CCN(c3ccnc(OC(C)C)c3)C2)cc1 (some centres unmarked) [Example 2.12] | 921
CCC(=O)Nc1nc(C)c(C(=O)N[C@@H](C)c2ccc(O[C@@H]3CCN(c4ccc(OC[C@H]5CC5(F)F)cn4)C3)cc2)s1 [Example 1.144] | 93
C[C@H](NC(=O)N1CCOCC1)c1ccc(OC2CCN(c3ccnc(N4CCC(F)(F)C4)c3F)C2)cc1 (some centres unmarked) [Example 3.23] | 205
CC(C)Oc1cc(N2CCC(Oc3ccc([C@H](C)NC(=O)C4CCOC4)cc3)C2)ccn1 (some centres unmarked) [Example 2.15] | 769
CC(=O)N[C@@H](C)c1ccc(OC2CCN(c3ccc(C4CC4)cn3)C2)cc1 (some centres unmarked) [Example 1.70] | 722
CC(=O)N[C@@H](C)c1ccc(OC2CCN(c3cccc(C4(S(C)(=O)=O)CC4)n3)C2)cc1 (some centres unmarked) [Example 1.79] | 950
CCNc1nccc(N2CC[C@@H](Oc3ccc([C@H](C)NC(C)=O)cc3)C2)c1F [Example 1.115] | 260
C[C@H](NC(=O)CC#N)c1ccc(OC2CCN(c3ccnc(OCC4CC4)c3)C2)cc1 (some centres unmarked) [Example 2.71] | 110
CC(C)Oc1cc(N2CCC(Oc3ccc([C@H](C)NC(=O)c4ccon4)cc3)C2)ccn1 (some centres unmarked) [Example 2.28] | 512
COc1c(N2CC[C@@H](Oc3ccc([C@H](C)NC(C)=O)cc3)C2)ccnc1OCC(C)(C)O [Example 1.151] | 504
COCC(=O)Nc1nc(C)c(C(=O)N[C@@H](C)c2ccc(OC3CCN(c4ccnc(OCC5CC5)c4)C3)cc2)s1 (some centres unmarked) [Example 2.75] | 39
Cc1nnsc1C(=O)N[C@@H](C)c1ccc(OC2CCN(c3cccc(C(F)(F)F)n3)C2)cc1 (some centres unmarked) [Example 2.53] | 314
CC(=O)N[C@@H](C)c1ccc(OC2CCN(c3cc(OC(C)C)ncc3F)C2)cc1 (some centres unmarked) [Example 1.74] | 100

SMILES | IC50 [nM]
CC(=O)N[C@@H](C)c1ccc(OC2CCN(c3ccnc(OCC4CC4)c3)C2)cc1 (some centres unmarked) [Example 1.35] | 414
CC(C)Oc1cc(N2CCC(Oc3ccc([C@H](C)NC(=O)c4ccns4)cc3)C2)ccn1 (some centres unmarked) [Example 2.6] | 145
CC(C#N)C(=O)N[C@@H](C)c1ccc(OC2CCN(c3ccnc(OCC4CC4)c3)C2)cc1 (some centres unmarked) [Example 2.83] | 210
CSc1ccc(N2CCC(Oc3ccc([C@H](C)NC(C)=O)cc3)C2)nc1 (some centres unmarked) [Example 1.69] | 387
C[C@H](NC(=O)N(C)C)c1ccc(OC2CCN(c3ccnc(OCC(F)F)c3F)C2)cc1 (some centres unmarked) [Example 5.9] | 73
CCCOc1ccc(N2CC[C@@H](Oc3ccc([C@H](C)NC(=O)c4sc(NC(C)=O)nc4C)cc3)C2)cn1 [Example 1.46] | 149
CC(=O)N[C@@H](C)c1ccc(OC2CCN(c3ccc(OC(C)C)nc3)C2)cc1 (some centres unmarked) [Example 1.10] | 832
C[C@H](NC(=O)C1CCC1)c1ccc(OC2CCN(c3cccc(C(F)(F)F)n3)C2)cc1 (some centres unmarked) [Example 2.48] | 891
COc1cc(OCC2CC2)cnc1N1CCC(Oc2ccc([C@H](C)NC(C)=O)cc2)C1 (some centres unmarked) [Example 1.80] | 484
CC(=O)NC1CCCN(C(=O)N[C@@H](C)c2ccc(OC3CCN(c4ccc(OCC5CC5(F)F)cn4)C3)cc2)C1 (some centres unmarked) [Example 3.21] | 363
COCC(=O)Nc1nc(C)c(C(=O)N[C@@H](C)c2ccc(OC3CCN(c4ccnc(OCC(F)F)c4)C3)cc2)s1 (some centres unmarked) [Example 2.96] | 55
Cc1cc(CC(=O)N[C@@H](C)c2ccc(OC3CCN(c4ccnc(OCC5CC5)c4)C3)cc2)on1 (some centres unmarked) [Example 2.87] | 270
C[C@H](NC(=O)C1CC1)c1ccc(OC2CCN(c3ccc(OC[C@H]4CC4(F)F)cn3)C2)cc1 (some centres unmarked) [Example 2.94] | 84
CCNC(=O)N[C@@H](C)c1ccc(OC2CCN(c3ccnc(OCC4CC4)c3)C2)cc1 (some centres unmarked) [Example 3.4] | 75
C[C@H](NC(=O)CO)c1ccc(OC2CCN(c3cccc(C(F)(F)F)n3)C2)cc1 (some centres unmarked) [Example 6.2] | 614
C[C@H](NC(=O)C(C)(C)F)c1ccc(OC2CCN(c3ccnc(OCC(F)F)c3)C2)cc1 (some centres unmarked) [Example 2.109] | 453
COC(=O)N[C@@H](C)c1ccc(OC2CCN(c3ccnc(N4CCC(F)(F)C4)c3F)C2)cc1 (some centres unmarked) [Example 4.7] | 134
C[C@H](NC(=O)c1cnsc1)c1ccc(OC2CCN(c3cccc(C(F)(F)F)n3)C2)cc1 (some centres unmarked) [Example 2.45] | 100
CC(=O)N[C@@H](C)c1ccc(O[C@@H]2CCN(c3cccc(N(C)C4CCC4)n3)C2)cc1 [Example 1.134] | 102
CC(=O)N[C@@H](C)c1ccc(OC2CCN(c3cc(OCC(C)C)ncc3F)C2)cc1 (some centres unmarked) [Example 1.75] | 30
CC(=O)N[C@@H](C)c1ccc(O[C@@H]2CCN(c3ncc(C(F)(F)F)cc3F)C2)cc1 [Example 8.3] | 755
COC(=O)N[C@@H](C)c1ccc(OC2CCN(c3ccnc(OCC(F)F)c3)C2)cc1 (some centres unmarked) [Example 4.5] | 166

The remaining lines, values ahead:

IC50 [nM] | SMILES
68 | CC(=O)N[C@@H](C)c1ccc(O[C@@H]2CCN(c3ccnc(OC4CC=CC4)c3)C2)cc1 [Example 9.11]
140 | CC(=O)N[C@@H](C)c1ccc(O[C@@H]2CCN(c3ccnc(OC4CCOCC4)c3)C2)cc1 [Example 9.22]
79 | CC(=O)N[C@@H](C)c1ccc(O[C@@H]2CCN(c3ccnc(OCC(F)F)c3Cl)C2)cc1 [Example 9.72]
145 | CC(=O)N[C@@H](C)c1ccc(O[C@@H]2CCN(c3cccc(N(C)C)n3)C2)cc1 [Example 10.1, N—((S)-1-(4-((R)-1-(6-(Dimethylamino)pyridin-2-yl)pyrrolidin-3-yloxy)phenyl)ethyl)acetamide]
55 | CC[C@H](C)Oc1cc(N2CC[C@@H](Oc3ccc([C@H](C)NC(C)=O)cc3)C2)ccn1 [Example 9.27]
464 | CC(=O)N[C@@H](C)c1ccc(O[C@@H]2CCN(c3cccc(N4CCC(F)(F)CC4)n3)C2)cc1 [Example 10.34]
57 | CCCOc1nccc(N2CC[C@@H](Oc3ccc([C@H](C)NC(C)=O)cc3)C2)c1Cl [Example 9.78]
131 | CC(=O)N[C@@H](C)c1ccc(O[C@@H]2CCN(c3ccc(OCCCF)cn3)C2)cc1 [Example 11.3]
40 | CC(=O)N[C@@H](C)c1ccc(O[C@@H]2CCN(c3ccnc(OCC4CC4(F)F)c3C)C2)cc1 (some centres unmarked) [Example 9.60]
665 | CC(=O)N[C@@H](C)c1ccc(O[C@@H]2CCN(c3cccc(N4CC=CC4)n3)C2)cc1 [Example 10.44]
30 | CC(=O)N[C@@H](C)c1ccc(O[C@@H]2CCN(c3ccnc(OCC(C)(C)C)c3)C2)cc1 [Example 9.29]
1100 | CC(=O)N[C@@H](C)c1ccc(O[C@@H]2CCN(c3ccnc(C(=O)Nc4ccc(Cl)cc4)c3)C2)cc1 [Example 8.11]
314 | CC(=O)N[C@@H](C)c1ccc(O[C@@H]2CCN(c3cccc(N(C)C(C)C)n3)C2)cc1 [Example 10.31]
482 | COCCOc1cc(N2CC[C@@H](Oc3ccc([C@H](C)NC(C)=O)cc3)C2)ccn1 [Example 9.18]
184 | CC(=O)N[C@@H](C)c1ccc(O[C@@H]2CCN(c3ccnc(O[C@@H]4CCOC4)c3)C2)cc1 [Example 9.10]
167 | CC(=O)N[C@@H](C)c1ccc(O[C@@H]2CCN(c3cc(N4CCCC4)ncc3F)C2)cc1 [Example 10.20]
268 | CC#CCOc1cc(N2CC[C@@H](Oc3ccc([C@H](C)NC(C)=O)cc3)C2)ccn1 [Example 9.8]
77 | C=C(C)COc1cc(N2CC[C@@H](Oc3ccc([C@H](C)NC(C)=O)cc3)C2)ccn1 [Example 9.17]
35 | CCCOc1cc(N2CC[C@@H](Oc3ccc([C@H](C)NC(=O)c4cncs4)cc3)C2)ccn1 [Example 9.64]
41 | CC(=O)N[C@@H](C)c1ccc(O[C@@H]2CCN(c3ccnc(OCC(C)C)c3)C2)cc1 [Example 9.2]
35 | CC(=O)N[C@@H](C)c1ccc(O[C@@H]2CCN(c3ccnc(OCC4CC4)c3Cl)C2)cc1 [Example 9.82]
